These results are taken from publication PMC11684530 (ACS Omega, 2024).

As a reminder, the IC50 is the concentration needed to halve the response being measured. Read a high IC50 as a need for much substance.

Each structure is given as a SMILES string.

In the assay the target is T1, COX-2 (cyclooxygenase-2) (Homo sapiens, UniProt P35354).
T1 sequence (P35354 18-604): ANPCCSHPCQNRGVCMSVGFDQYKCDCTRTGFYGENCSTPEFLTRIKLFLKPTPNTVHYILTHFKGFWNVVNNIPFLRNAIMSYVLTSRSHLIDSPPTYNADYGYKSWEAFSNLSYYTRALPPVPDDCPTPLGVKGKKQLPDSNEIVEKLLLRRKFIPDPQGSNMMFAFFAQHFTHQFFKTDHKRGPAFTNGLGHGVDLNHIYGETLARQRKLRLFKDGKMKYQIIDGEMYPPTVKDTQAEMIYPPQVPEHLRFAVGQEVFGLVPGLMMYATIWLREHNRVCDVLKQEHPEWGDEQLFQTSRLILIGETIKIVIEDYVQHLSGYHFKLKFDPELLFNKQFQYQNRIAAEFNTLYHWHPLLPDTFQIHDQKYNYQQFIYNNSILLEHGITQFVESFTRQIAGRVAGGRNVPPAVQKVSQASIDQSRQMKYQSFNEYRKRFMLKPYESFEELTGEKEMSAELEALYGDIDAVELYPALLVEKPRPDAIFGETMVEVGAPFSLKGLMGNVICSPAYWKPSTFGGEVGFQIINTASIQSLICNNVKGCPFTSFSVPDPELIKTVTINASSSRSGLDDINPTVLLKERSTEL
In words: fluorometric COX-2 inhibitor screening kit. The class given is biochemical.
`O=c1cc(-c2ccccc2)oc2cc(O)c(CCO)c(O)c12` [1a, 5,7-Dihydroxy-6-(2-hydroxyethyl)-2-phenyl-4H-chromen-4-one] returned an IC50 of 9.63 µM. As for `O=c1cc(-c2ccccc2)oc2cc(O)cc(O)c12` [chrysin], half-maximal inhibition (IC50) required 18.5 µM.

As to `CC(C)=CCc1c(O)cc(O)c2c(=O)cc(-c3ccccc3)oc12` [compound 8, 5,7-Dihydroxy-8-(3-methylbut-2-en-1-yl)-2-phenyl-4H-chromen-4-one], the midpoint of inhibition, the IC50, lay at 6.76 µM.
